Experimental findings from PMC8286840, “Identifying SARS-CoV-2 antiviral compounds by screening for small molecule inhibitors of Nsp3 papain-like protease” (Biochemical Journal, 2021) are described below.

Counter-ions that a name gives are not always drawn. Like-named read-outs stand apart in the source and are kept apart here.

In assay [1] the target is T1, SARS-CoV-2 PLpro (nsp3 1564–1878) (Severe acute respiratory syndrome coronavirus 2, UniProt P0DTD1). Briefly: biochemical. More on the design: FRET-quenched peptide (Pro3) cleavage by PLpro, 10 min pre-incubation, slope over 20 min, normalised to no-compound control. The following applies: high concentration screen, read-out: % of control remaining.
Assay [2] concerns the target T1, SARS-CoV-2 PLpro (nsp3 1564–1878). Briefly: biochemical. To be noted: low concentration screen, read-out: % of control remaining. Further details: FRET-quenched peptide (Pro3) cleavage by PLpro, 10 min pre-incubation, slope over 20 min, normalised to no-compound control.

As to `CCCCCCCCOc1ccccc1C(=O)Nc1ccc(C(=O)OCC[N+](C)(CC)CC)cc1` [Otilonium Bromide], the remaining activity at 3.75 µM in assay [1] (Well no.=4893) came to 93.3%. For the same compound, the remaining activity at 1.25 µM in assay [2] (Well no.=4893) was 92.9%.

Take `C[C@@H]1O[C@@H](O[C@H]2C[C@@H](O)[C@]3(CO)[C@H]4[C@H](O)C[C@]5(C)[C@@H](C6=CC(=O)OC6)CC[C@]5(O)[C@@H]4CC[C@]3(O)C2)[C@H](O)[C@H](O)[C@H]1O` [Ouabain]: the remaining activity at 3.75 µM in assay [1] (Well no.=1088) turned out to be 94.6%. For the same compound, the remaining activity at 1.25 µM in assay [2] (Well no.=1088) stood at 93.1%.

For `Cc1onc(-c2ccccc2)c1C(=O)N[C@@H]1C(=O)N2[C@@H]1SC(C)(C)[C@@H]2C(=O)O` [Oxacillin (sodium monohydrate)], the remaining activity at 3.75 µM in assay [1] (Well no.=7552) worked out at 97.5%. For the same compound, in assay [2] (Well no.=7552), the remaining activity at 1.25 µM amounted to 99.7%.

For the compound `Cc1onc(-c2ccccc2)c1C(=O)N[C@@H]1C(=O)N2[C@@H]1SC(C)(C)[C@@H]2C(=O)O` [Oxacillin], in assay [1] (Well no.=2057), the remaining activity at 3.75 µM amounted to 103%. Also, in assay [2] (Well no.=2057), the remaining activity at 1.25 µM is 105%.

On to `O=C(O)CCc1nc(-c2ccccc2)c(-c2ccccc2)o1` [Oxaprozin], for which the remaining activity at 3.75 µM in assay [1] (Well no.=1090) stood at 104%. The remaining activity at 1.25 µM in assay [2] (Well no.=1090) turned out to be 102%.

As for `O=c1[nH]c2ccccc2n1CCCN1CCN(C(c2ccccc2)c2ccccc2)CC1` [Oxatomide], the results for the remaining activity at 3.75 µM in assay [1] (Well no.=994) and in assay [1] (Well no.=1855) were 101% and 98.9%, respectively. Further, the remaining activity at 1.25 µM in assay [2] (Well no.=994) came out at 103%; in assay [2] (Well no.=1855), 95.4%.

Regarding `NC(=O)N1c2ccccc2CC(=O)c2ccccc21` [Oxcarbazepine], the remaining activity at 3.75 µM in assay [1] (Well no.=2053) worked out at 104%. In assay [2] (Well no.=2053), the remaining activity at 1.25 µM was found to be 103%.

Turning to `COC(=O)Nc1nc2cc([S+]([O-])c3ccccc3)ccc2[nH]1` (stereo not drawn) [Oxfendazole], the remaining activity at 3.75 µM in assay [1] (Well no.=2059) was determined as 105%. Moreover, the remaining activity at 1.25 µM in assay [2] (Well no.=2059) came out at 105%.

As to `CCCOc1ccc2[nH]c(NC(=O)OC)nc2c1` [Oxibendazole], in assay [1] (Well no.=2061), the remaining activity at 3.75 µM is 98.3%. Besides, in assay [2] (Well no.=2061), the remaining activity at 1.25 µM is 99%.

With `NCCc1cc(O)c(O)cc1O` [Oxidopamine (hydrobromide)], the remaining activity at 3.75 µM in assay [1] (Well no.=6940) turned out to be 92.3%. Besides, the remaining activity at 1.25 µM in assay [2] (Well no.=6940) turned out to be 92%.

`NC(=O)CN1CC(O)CC1=O` (stereo not drawn) [Oxiracetam]: in assay [1] (Well no.=1040), the remaining activity at 3.75 µM amounted to 97.5%. In addition, the remaining activity at 1.25 µM in assay [2] (Well no.=1040) came to 91.2%.

As to `CCn1cc(C(=O)O)c(=O)c2cc3c(cc21)OCO3` [Oxolinic acid], the remaining activity at 3.75 µM in assay [1] (Well no.=1134) worked out at 98.5%. In assay [2] (Well no.=1134), the remaining activity at 1.25 µM came to 98.1%.

Consider `C[N+](C)(C)CC#CCN1CCCC1=O` [Oxotremorine methiodide], for which, in assay [1] (Well no.=1138), the remaining activity at 3.75 µM was 97.9%. The remaining activity at 1.25 µM in assay [2] (Well no.=1138) worked out at 96.9%.

Consider `O=C1CCCN1CC#CCN1CCCC1` [Oxotremorine], for which, in assay [1] (Well no.=1673), the remaining activity at 3.75 µM stood at 102%. In addition, in assay [2] (Well no.=1673), the remaining activity at 1.25 µM is 104%.

For the compound `Cc1cc(C(C)(C)C)c(O)c(C)c1CC1=NCCN1` [Oxymetazoline (hydrochloride)], in assay [1] (Well no.=7327), the remaining activity at 3.75 µM was determined as 99.6%. Moreover, in assay [2] (Well no.=7327), the remaining activity at 1.25 µM was determined as 102%.

Consider `Cc1cc(C(C)(C)C)c(O)c(C)c1CC1=NCCN1` [Oxymetazoline hydrochloride], for which the remaining activity at 3.75 µM in assay [1] (Well no.=896) worked out at 101%. In addition, the remaining activity at 1.25 µM in assay [2] (Well no.=896) is 103%.

As to `CN(C)[C@@H]1C(O)=C(C(N)=O)C(=O)[C@@]2(O)C(O)=C3C(=O)c4c(O)cccc4[C@@](C)(O)[C@H]3[C@H](O)[C@@H]12` [Oxytetracycline dihydrate], the remaining activity at 3.75 µM in assay [1] (Well no.=4718) is 99.6%. Further, the remaining activity at 1.25 µM in assay [2] (Well no.=4718) came out at 102%.

On to `CC[C@H](C)[C@@H]1NC(=O)[C@H](Cc2ccc(O)cc2)NC(=O)[C@@H](N)CSSC[C@@H](C(=O)N2CCC[C@H]2C(=O)N[C@@H](CC(C)C)C(=O)NCC(N)=O)NC(=O)[C@H](CC(N)=O)NC(=O)[C@H](CCC(N)=O)NC1=O` [Oxytocin (acetate)], for which the remaining activity at 3.75 µM in assay [1] (Well no.=8107) was found to be 104%. Also, in assay [2] (Well no.=8107), the remaining activity at 1.25 µM is 107%.

Consider `O=C(O)/C=C/c1ccc(Cn2ccnc2)cc1` [Ozagrel HCl], for which the remaining activity at 3.75 µM in assay [1] (Well no.=4726) amounted to 101%. In addition, the remaining activity at 1.25 µM in assay [2] (Well no.=4726) came out at 108%.

Turning to `O=C(O)/C=C/c1ccc(Cn2ccnc2)cc1` [Ozagrel], the remaining activity at 3.75 µM in assay [1] (Well no.=1886) is 93.9%. Besides, the remaining activity at 1.25 µM in assay [2] (Well no.=1886) was determined as 91.5%.

Regarding `CC(C)Oc1ccc(-c2nc(-c3cccc4c3CC[C@@H]4NCCO)no2)cc1C#N` [Ozanimod], in assay [1] (Well no.=7422), the remaining activity at 3.75 µM was 106%. Moreover, in assay [2] (Well no.=7422), the remaining activity at 1.25 µM amounted to 104%.

Turning to `Nc1ncnc2c1ncn2[C@@H]1O[C@H](COP(=O)(O)OP(=O)(O)OP(=O)(O)OP(=O)(O)OC[C@H]2O[C@@H](n3cnc4c(N)ncnc43)[C@H](O)[C@@H]2O)[C@@H](O)[C@H]1O` [P1,P4-Di(adenosine-5')tetraphosphate triammonium], in assay [1] (Well no.=731), the remaining activity at 3.75 µM worked out at 94.1%. For the same compound, the remaining activity at 1.25 µM in assay [2] (Well no.=731) came to 96.1%.

`O=[N+]([O-])c1cn2c(n1)OC[C@@H](OCc1ccc(OC(F)(F)F)cc1)C2` [PA-824]: the remaining activity at 3.75 µM in assay [1] (Well no.=4709) amounted to 104%. Moreover, the remaining activity at 1.25 µM in assay [2] (Well no.=4709) was found to be 104%.

Take `C=CCc1cccc(/C=N/NC(=O)CN2CCN(Cc3ccccc3)CC2)c1O` [PAC-1]: the remaining activity at 3.75 µM in assay [1] (Well no.=4697) turned out to be 101%; in assay [1] (Well no.=6200) it was 93.7%. Further, the remaining activity at 1.25 µM in assay [2] (Well no.=4697) worked out at 103%; in assay [2] (Well no.=6200), 107%.

As for `CCCCCCCCCCCCCCCC(=O)C(F)(F)F` [PACOCF3], the remaining activity at 3.75 µM in assay [1] (Well no.=4390) came to 100%. Moreover, in assay [2] (Well no.=4390), the remaining activity at 1.25 µM was found to be 102%.

For the compound `CCCCCCCCCCCCCCCCOC[C@@H](COP(=O)([O-])OCC[N+](C)(C)C)OC(C)=O` [PAF C16], the remaining activity at 3.75 µM in assay [1] (Well no.=4445) was determined as 98.2%. Further, the remaining activity at 1.25 µM in assay [2] (Well no.=4445) was 103%.

For the compound `CCCCCCCC/C=C\CCCCCCCCOC[C@H](COP(=O)([O-])OCC[N+](C)(C)C)OC(C)=O` [PAF C18:1], the remaining activity at 3.75 µM in assay [1] (Well no.=4453) came to 99.9%. Further, in assay [2] (Well no.=4453), the remaining activity at 1.25 µM amounted to 99.9%.

As for `CN(C)Cc1c(C(=O)NCCOc2ccc(C(=O)NO)cc2)oc2ccccc12` [PCI-24781], in assay [1] (Well no.=4840), the remaining activity at 3.75 µM was found to be 100%. In addition, in assay [2] (Well no.=4840), the remaining activity at 1.25 µM amounted to 101%.

For the compound `N=C(N)c1ccc2nc(-c3cc(CC(=O)N[C@@H](CC(=O)O)C(=O)O)cc(-c4cc(S(N)(=O)=O)ccc4O)c3O)[nH]c2c1` [PCI-27483], in assay [1] (Well no.=8564), the remaining activity at 3.75 µM was determined as 102%. In addition, in assay [2] (Well no.=8564), the remaining activity at 1.25 µM was 104%.

With `C=CC(=O)N1CCC[C@@H](n2nc(-c3ccc(Oc4ccccc4)cc3)c3c(N)ncnc32)C1` [PCI-32765 (Ibrutinib)], the remaining activity at 3.75 µM in assay [1] (Well no.=4649) was determined as 88.8%. The remaining activity at 1.25 µM in assay [2] (Well no.=4649) was 96%.

Consider `COc1ccc(Cn2ccc3ccc(C(=O)NO)cc32)cc1` [PCI-34051], for which the remaining activity at 3.75 µM in assay [1] (Well no.=4710) came to 103%. Moreover, the remaining activity at 1.25 µM in assay [2] (Well no.=4710) is 107%.
